The record followed here is ChEMBL document CHEMBL3507680, “University of Dundee, Gates Library screen for HepG2 cell viability”.

The data set can be described thus: Human HepG2 cell viability assay in 384 well format. The settings on record: HepG2 cells, read-out: Inhibition. Further details: dose 125 nL, time 70.5 hour; cytotoxicity at 70.5 h: concentration not given beside the values. The class given is toxicity, cell-based.

As to `Cc1noc(-c2cccnc2N(C)Cc2cscn2)n1`, the cytotoxicity at 70.5 h was -5.46%.

In the case of `Cc1c(C2NC3(CCCC3)C(=O)N2CC2CC2)cc(C#N)n1C` (stereo not drawn), the cytotoxicity at 70.5 h was -8.72%.

As to `CC(=O)Nc1cccc(Cn2nc(C)nc2C)c1`, the cytotoxicity at 70.5 h is -6.2%.

In the case of `Cc1noc(-c2cccnc2N(C)Cc2ccc([S+](C)[O-])cc2)n1` (stereo not drawn), the cytotoxicity at 70.5 h is -3.37%.

`c1ccc(CC2(CNCc3ncc[nH]3)CCC2)cc1`: the cytotoxicity at 70.5 h was -2.49%.

In the case of `CCN1C(=O)C2(CCCCC2)NC1c1cc(C#N)n(C)c1C` (stereo not drawn), the cytotoxicity at 70.5 h was -8.35%.

For `N#Cc1ccc(CN(CC(N)=O)C2CCCC2)c(Br)c1`, the cytotoxicity at 70.5 h is -6.26%.

Take `Cc1csc(C2(NCc3nc(-c4ccco4)no3)CCCC2)n1`: the cytotoxicity at 70.5 h was -12.8%.

For the compound `Cc1ncsc1C(=O)N1CC(C)Sc2ccccc21` (stereo not drawn), the cytotoxicity at 70.5 h is -8.57%.

Turning to `Cc1nc(CN2CCCC(Nc3ncnc4ccccc34)C2)no1` (stereo not drawn), the cytotoxicity at 70.5 h is -5.36%.

On to `CN(Cc1ccc(Cl)s1)C(=O)CN(C)C1CCCc2ccccc21` (stereo not drawn), for which the cytotoxicity at 70.5 h is -4.74%.

Turning to `O=C(Cc1cccc(F)c1)N1CCc2ncnc(NC3CCC3)c2CC1`, the cytotoxicity at 70.5 h worked out at 2.52%.

As for `O=C(NCc1cccc(F)c1)N1CCc2ncnc(NC3CC3)c2CC1`, the cytotoxicity at 70.5 h is 1.62%.

With `CO[C@H]1CO[C@@]2(CCCN(C(=O)N(C)C)C2)C1`, the cytotoxicity at 70.5 h was -3.18%.

On to `CCS(=O)(=O)N1CCC2(CC1)c1ncc(-c3cccnc3)n1CCN2C`, for which the cytotoxicity at 70.5 h is -5.3%.

As to `CS(=O)(=O)N1CC[C@H]2OCC[C@@]2(C(=O)NCC2CC2)C1`, the cytotoxicity at 70.5 h was -7.08%.

As for `CC(C)n1c2ccccc2c2c1cc(C(=O)NCCO)n2C(=O)N(C)C`, the cytotoxicity at 70.5 h was -4.08%.

For the compound `CC(=O)N1CCO[C@@H]2CN(C(=O)NCc3ccccc3)CC[C@@H]2C1`, the cytotoxicity at 70.5 h was 9.54%.

On to `CN1CCO[C@@H]2CN(C(=O)NCc3cccc(F)c3)CC[C@@H]2C1`, for which the cytotoxicity at 70.5 h was -3.54%.

For `CC(=O)N1CCc2nc(-c3ccccc3)nc(NC(C)C)c2CC1`, the cytotoxicity at 70.5 h was -13.5%.

As to `CN1CC[C@]2(CN(S(C)(=O)=O)C[C@H]2c2ccccc2)C1=O`, the cytotoxicity at 70.5 h came out at 3.8%.

Take `CC(=O)N1CC[C@H]2OCC[C@@]2(C(=O)NCc2cnc(C)cn2)C1`: the cytotoxicity at 70.5 h is -5.25%.

As for `CC(=O)N1C[C@@H]2CN(S(=O)(=O)C3CC3)CCO[C@@H]2C1`, the cytotoxicity at 70.5 h is -1.33%.

For the compound `CCOC[C@@]12CCC[C@@H]1CN(C(=O)c1ccc(OC)cc1)C2`, the cytotoxicity at 70.5 h was 4.26%.

Regarding `CNC(=O)C1Cn2ccnc2C2(CCN(C(=O)NC3CCCC3)CC2)O1` (stereo not drawn), the cytotoxicity at 70.5 h was -9.83%.

For the compound `CCn1ncc2c1C(COC)N(C(=O)Cc1cccs1)CC2` (stereo not drawn), the cytotoxicity at 70.5 h is -0.61%.

Turning to `O=C(C1CC1)N1CCOC2(CCNCC2)C1`, the cytotoxicity at 70.5 h is -10.9%.

Take `CN(Cc1cccnc1)Cc1cncc2c1CCN(Cc1ccoc1)C2`: the cytotoxicity at 70.5 h was -7.08%.

As to `CN(Cc1cccnc1)Cc1cncc2c1CCN(c1ccccn1)C2`, the cytotoxicity at 70.5 h came out at 2.24%.

`CS(=O)(=O)N1CC[C@H]2OCC[C@@]2(C(=O)NCCc2ccccn2)C1`: the cytotoxicity at 70.5 h was -7.11%.

For `CC(C)NC(=O)N1CCN(CCn2cccn2)c2ncccc2C1`, the cytotoxicity at 70.5 h was -2.7%.

As to `CCC(=O)N1CCN(CCn2cccn2)c2ncccc2C1`, the cytotoxicity at 70.5 h is 12.9%.

`O=C(c1ccncc1)N1CCC2(CCCN(c3ncc(F)cn3)C2)C1` (stereo not drawn): the cytotoxicity at 70.5 h was -2.34%.

Regarding `NC(=O)C1Cn2ccnc2C2(CCN(C(=O)NC3CCCC3)CC2)O1` (stereo not drawn), the cytotoxicity at 70.5 h was -8.91%.

For `O=C(COC[C@@]12CCC[C@@H]1CN(C1CCC1)C2)N1CCCC1`, the cytotoxicity at 70.5 h is -9.27%.

Take `CC(C)Nc1nc(-c2ccccc2)nc2c1CCN(C(=O)C1CC1)CC2`: the cytotoxicity at 70.5 h was -9.57%.

Take `CN(C)C(=O)COC[C@]12COC[C@H]1CN(C1CCCC1)C2`: the cytotoxicity at 70.5 h is -8.08%.

For the compound `Cc1ccc(CN2CCC[C@]3(C(=O)O)CN(CC4CC4)C[C@@H]3C2)s1`, the cytotoxicity at 70.5 h was -6.54%.
